Results: ChEMBL document CHEMBL1151699, “Synthesis and biological evaluation of guanylhydrazone coactivator binding inhibitors for the estrogen receptor” (Bioorg Med Chem, 2008)
Activity calls are given as the source filed them. The rule behind the calls is not given here.

How the values were obtained:
[1] = biological target: Estrogen receptor alpha (Homo sapiens) (UniProt P03372); experiment: Inhibition of estradiol-induced coactivator peptide SRC1 binding to estrogen receptor alpha expressed in human HEC1 cells at 20 uM after 24 hrs by beta-galactosidase based mammalian two-hybrid assay; set-up: scale not given: the % may be the effect or the level left; conditions: HEC-1
Estrogen receptor [2] = biological target: T1, Estrogen receptor (Homo sapiens, UniProt P03372); experiment: Inhibition of estradiol-induced coactivator peptide SRC1 binding to estrogen receptor alpha expressed in human HEC1 cells after 24 hrs by luciferase based mammalian two-hybrid assay; assay type: cell-based, HEC-1
T1 sequence (P03372 whole entry): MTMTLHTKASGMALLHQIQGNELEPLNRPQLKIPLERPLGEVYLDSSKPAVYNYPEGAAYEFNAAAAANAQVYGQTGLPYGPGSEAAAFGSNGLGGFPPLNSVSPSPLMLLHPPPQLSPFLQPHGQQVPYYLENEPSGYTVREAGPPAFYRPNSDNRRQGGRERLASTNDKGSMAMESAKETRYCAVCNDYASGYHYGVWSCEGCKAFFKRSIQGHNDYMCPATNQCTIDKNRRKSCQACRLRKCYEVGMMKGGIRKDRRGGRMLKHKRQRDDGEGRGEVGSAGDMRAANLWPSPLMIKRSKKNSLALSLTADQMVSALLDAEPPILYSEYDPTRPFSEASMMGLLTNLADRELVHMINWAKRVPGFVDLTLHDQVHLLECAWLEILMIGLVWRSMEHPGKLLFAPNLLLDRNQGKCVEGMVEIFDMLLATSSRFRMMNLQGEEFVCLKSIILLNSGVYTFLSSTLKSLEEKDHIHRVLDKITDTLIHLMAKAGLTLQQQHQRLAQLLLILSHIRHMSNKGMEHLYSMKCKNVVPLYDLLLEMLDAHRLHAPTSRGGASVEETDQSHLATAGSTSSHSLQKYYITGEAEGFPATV

[3] = biological target: Estrogen receptor alpha (Homo sapiens) (UniProt P03372); experiment: Antagonist activity at estrogen receptor alpha expressed in human HEC1 cells assessed as inhibition of estradiol-induced transcriptional activity at 20 uM after 24 hrs by beta-galactosidase reporter gene assay; set-up: scale not given: the % may be the effect or the level left; conditions: HEC-1
Estrogen receptor [4] = biological target: T1, Estrogen receptor; experiment: Inhibition of estradiol-induced coactivator peptide SRC binding to recombinant estrogen receptor by fluorescence polarization assay
[5] = biological target: Estrogen receptor alpha (Homo sapiens) (UniProt P03372); experiment: Covalent binding affinity to estrogen receptor alpha assessed as change in molecular weight after 30 mins by electrospray ionization mass spectrometry

## COc1ccc2c(c1)CCC(/C=N/NC(=N)N)=C2Cl
[1]
  Activity: 50%
Estrogen receptor [2]
  IC50: 2.1 µM
[3]
  Activity: 50%

## C/C(=N\NC(=N)N)C1=C(Cl)c2ccccc2CC1
[1]
  Activity: 50%
[3]
  Activity: 50%

## CC(/C=N/NC(=N)N)=C(/Cl)c1ccccc1
[1]
  Activity: 50%
Estrogen receptor [4]
  IC50: 37 µM
Estrogen receptor [2]
  IC50: 2.6 µM
[3]
  Activity: 50%

## N=C(N)N/N=C/C1=C(Cl)c2ccccc2C1
[1]
  Activity: 50%
Estrogen receptor [2]
  IC50: 6.8 µM
[3]
  Activity: 50%

## N=C(N)N/N=C/c1ccc2ccccc2c1
[1]
  Activity: 50%
Estrogen receptor [2]
  IC50: 11.3 µM
[3]
  Activity: 50%

## COC1=C(/C=N/NC(=N)N)CCc2ccccc21
[1]
  Activity: 50%
Estrogen receptor [2]
  IC50: ≥ 50 µM
[3]
  Activity: 50%

## N=C(N)N/N=C/C1=C(C(F)(F)F)c2ccccc2CC1
[1]
  Activity: 50%
[3]
  Activity: 50%

## N=C(N)N/N=C/C=C(\Cl)c1ccccc1
[1]
  Activity: 50%
Estrogen receptor [2]
  IC50: 4.6 µM
[3]
  Activity: 50%

## N=C(N)N/N=C/C1=C(Br)c2ccccc2CC1
[1]
  Activity: 50%
Estrogen receptor [2]
  IC50: 4.9 µM
[3]
  Activity: 50%

## Cc1cc(C)c2c(c1)C(Cl)=C(/C=N/NC(=N)N)CC2
[1]
  Activity: 50%
Estrogen receptor [2]
  IC50: 2.5 µM
[3]
  Activity: 50%

## N=C(N)N/N=C/C=C(\Cl)c1cccc2ccccc12
[1]
  Activity: 50%
Estrogen receptor [2]
  IC50: ≥ 50 µM
[3]
  Activity: 50%

## CC1CC(/C=N/NC(=N)N)=C(Cl)c2ccccc21 (stereo not given)
[1]
  Activity: 50%
Estrogen receptor [2]
  IC50: 9.4 µM
[3]
  Activity: 50%

## N=C(N)N/N=C/C1=C(Oc2ccccc2)c2ccccc2CC1
[1]
  Activity: 50%
Estrogen receptor [2]
  IC50: 5.9 µM
[3]
  Activity: 50%

## N=C(N)N/N=C/c1cccc2ccccc12
[1]
  Activity: 50%
Estrogen receptor [2]
  IC50: 11.5 µM
[3]
  Activity: 50%

## N=C(N)N/N=C/C1=C(Cl)c2ccccc2CC1
[1]
  Activity: 50%
Estrogen receptor [4]
  IC50: 11 µM
[5]
  Activity: inactive
Estrogen receptor [2]
  IC50: 3.6 µM
[3]
  Activity: 50%

## N=C(N)N/N=C/C1=C(Cl)c2ccccc2CCC1
[1]
  Activity: 50%
Estrogen receptor [4]
  IC50: 16 µM
Estrogen receptor [2]
  IC50: 4 µM
[3]
  Activity: 50%
